Laboratory results taken from PubChem BioAssay AID1259407 (Chemical Carcinogenesis Research Information System (CCRIS), 2018).
Activity calls are given as the source filed them. The rule behind the calls is not given here.

Test system: CCRIS mutagenicity, Ames/micronucleus/aberration tests
Test: CCRIS mutagenicity studies
[1] = Test System: AMES SALMONELLA TYPHIMURIUM, Strain/Indicator: TA98, Metabolic Activation: NONE, Method: STANDARD PLATE
[2] = Test System: AMES SALMONELLA TYPHIMURIUM, Strain/Indicator: TA100, Metabolic Activation: NONE, Method: STANDARD PLATE
[3] = Test System: AMES SALMONELLA TYPHIMURIUM, Strain/Indicator: TA1535, Metabolic Activation: NONE, Method: STANDARD PLATE
[4] = Test System: AMES SALMONELLA TYPHIMURIUM, Strain/Indicator: TA1537, Metabolic Activation: NONE, Method: STANDARD PLATE
[5] = Test System: AMES SALMONELLA TYPHIMURIUM, Strain/Indicator: TA1535, Metabolic Activation: NONE, Method: PREINCUBATION
[6] = Test System: AMES SALMONELLA TYPHIMURIUM, Strain/Indicator: TA1535, Metabolic Activation: RAT, LIVER, S-9, AROCLOR 1254, Method: STANDARD PLATE
[7] = Test System: AMES SALMONELLA TYPHIMURIUM, Strain/Indicator: TA1537, Metabolic Activation: RAT, LIVER, S-9, AROCLOR 1254, Method: STANDARD PLATE
[8] = Test System: AMES SALMONELLA TYPHIMURIUM, Strain/Indicator: TA1538, Metabolic Activation: NONE, Method: STANDARD PLATE
[9] = Test System: AMES SALMONELLA TYPHIMURIUM, Strain/Indicator: TA1538, Metabolic Activation: RAT, LIVER, S-9, AROCLOR 1254, Method: STANDARD PLATE
[10] = Test System: AMES SALMONELLA TYPHIMURIUM, Strain/Indicator: TA98, Metabolic Activation: NONE, Method: PREINCUBATION
[11] = Test System: AMES SALMONELLA TYPHIMURIUM, Strain/Indicator: TA1537, Metabolic Activation: NONE, Method: PREINCUBATION

Nc1nccs1
mutagenic call (Test System: AMES SALMONELLA TYPHIMURIUM, Strain/Indicator: TA98, Metabolic Activation: RAT, LIVER, S-9, AROCLOR 1254, HAMSTER, LIVER, S-9, AROCLOR 1254, Method: STANDARD PLATE): active; positive | mutagenic call (Test System: AMES SALMONELLA TYPHIMURIUM, Strain/Indicator: TA1538, Metabolic Activation: RAT, LIVER, S-9, AROCLOR 1254, HAMSTER, LIVER, S-9, AROCLOR 1254, Method: STANDARD PLATE): active; positive | mutagenic call (Test System: MOUSE LYMPHOMA, Strain/Indicator: L5178Y (TK+/TK-), Metabolic Activation: NONE, Method: SUSPENSION/PLATE): active; positive. reevaluation of results: equivocal | mutagenic call (Test System: MOUSE LYMPHOMA, Strain/Indicator: L5178Y (TK+/TK-), Metabolic Activation: RAT, LIVER, S-9, AROCLOR 1254, Method: SUSPENSION/PLATE): active; positive. reevaluation of results: equivocal

C=C1CC[C@H]2[C@@H](c3c(C)c(O)c4c(c31)C(=O)[C@@H](C)C4)C2(C)C
mutagenic call [1]: inactive; negative | mutagenic call (Test System: AMES SALMONELLA TYPHIMURIUM, Strain/Indicator: TA98, Method: STANDARD PLATE): inactive; negative | mutagenic call [2]: inactive; negative | mutagenic call (Test System: AMES SALMONELLA TYPHIMURIUM, Strain/Indicator: TA100, Method: STANDARD PLATE): inactive; negative

CC(C)(Oc1ccc(C(=O)c2ccc(Cl)cc2)cc1)C(=O)O
mutagenic call [1]: inactive; negative | mutagenic call (Test System: AMES SALMONELLA TYPHIMURIUM, Strain/Indicator: TA98, Metabolic Activation: RAT, LIVER, S-9, PHENOBARBITAL AND 5,6-BENZOFLAVONE, Method: STANDARD PLATE): inactive; negative | mutagenic call [2]: inactive; negative | mutagenic call (Test System: AMES SALMONELLA TYPHIMURIUM, Strain/Indicator: TA100, Metabolic Activation: RAT, LIVER, S-9, PHENOBARBITAL AND 5,6-BENZOFLAVONE, Method: STANDARD PLATE): inactive; negative | mutagenic call [3]: inactive; negative | mutagenic call (Test System: AMES SALMONELLA TYPHIMURIUM, Strain/Indicator: TA1535, Metabolic Activation: RAT, LIVER, S-9, PHENOBARBITAL AND 5,6-BENZOFLAVONE, Method: STANDARD PLATE): inactive; negative | mutagenic call [4]: inactive; negative | mutagenic call (Test System: AMES SALMONELLA TYPHIMURIUM, Strain/Indicator: TA1537, Metabolic Activation: RAT, LIVER, S-9, PHENOBARBITAL AND 5,6-BENZOFLAVONE, Method: STANDARD PLATE): inactive; negative | mutagenic call (Test System: E. COLI, Strain/Indicator: WP2 UVRA, Metabolic Activation: NONE, Method: STANDARD PLATE): inactive; negative | mutagenic call (Test System: E. COLI, Strain/Indicator: WP2 UVRA, Metabolic Activation: RAT, LIVER, S-9, PHENOBARBITAL AND 5,6-BENZOFLAVONE, Method: STANDARD PLATE): inactive; negative

C[n+]1c2ccccc2nc2ccccc21
mutagenic call [1]: inactive; negative | mutagenic call (Test System: AMES SALMONELLA TYPHIMURIUM, Strain/Indicator: TA102, Metabolic Activation: NONE, Method: PREINCUBATION): inactive; negative | mutagenic call (Test System: AMES SALMONELLA TYPHIMURIUM, Strain/Indicator: TA102, Metabolic Activation: NONE, Method: STANDARD PLATE): inactive; negative | mutagenic call [5]: inactive; negative | mutagenic call [3]: inactive; negative | mutagenic call [6]: inactive; negative | mutagenic call [4]: active; positive | mutagenic call [7]: active; positive | mutagenic call [8]: inactive; negative | mutagenic call [9]: inactive; negative | mutagenic call (Test System: AMES SALMONELLA TYPHIMURIUM, Strain/Indicator: TA1975, Metabolic Activation: NONE, Method: PREINCUBATION): inactive; negative | mutagenic call (Test System: AMES SALMONELLA TYPHIMURIUM, Strain/Indicator: TA2638, Metabolic Activation: NONE, Method: STANDARD PLATE): inactive; negative | mutagenic call (Test System: AMES SALMONELLA TYPHIMURIUM, Strain/Indicator: YG3001, Metabolic Activation: NONE, Method: PREINCUBATION): inactive; negative | mutagenic call (Test System: AMES SALMONELLA TYPHIMURIUM, Strain/Indicator: YG3002, Metabolic Activation: NONE, Method: PREINCUBATION): inactive; negative | mutagenic call (Test System: AMES SALMONELLA TYPHIMURIUM, Strain/Indicator: YG3003, Metabolic Activation: NONE, Method: PREINCUBATION): inactive; negative | mutagenic call (Test System: E. COLI, Strain/Indicator: WP2 (PKM101), Metabolic Activation: NONE, Method: STANDARD PLATE): inactive; negative | mutagenic call (Test System: E. COLI, Strain/Indicator: WP2 UVRA (PKM101), Metabolic Activation: NONE, Method: STANDARD PLATE): active; positive

Cc1cccc2c3c(c4cc5ccccc5cc4c12)O3
mutagenic call [10]: active; positive

Nc1nccc2[nH]c3ccccc3c12
mutagenic call [11]: active; positive

O=Cc1ccc(O)cc1
mutagenic call [10]: inactive; negative | mutagenic call (Test System: AMES SALMONELLA TYPHIMURIUM, Strain/Indicator: TA98, Metabolic Activation: RAT LIVER S-9, PHENOBARBITAL AND BETA-NAPHTHOFLAVONE, Method: PREINCUBATION): inactive; negative | mutagenic call (Test System: AMES SALMONELLA TYPHIMURIUM, Strain/Indicator: TA100, Metabolic Activation: NONE, Method: PREINCUBATION): inactive; negative | mutagenic call (Test System: AMES SALMONELLA TYPHIMURIUM, Strain/Indicator: TA100, Metabolic Activation: RAT LIVER S-9, PHENOBARBITAL AND BETA-NAPHTHOFLAVONE, Method: PREINCUBATION): inactive; negative | mutagenic call [5]: inactive; negative | mutagenic call (Test System: AMES SALMONELLA TYPHIMURIUM, Strain/Indicator: TA1535, Metabolic Activation: RAT LIVER S-9, PHENOBARBITAL AND BETA-NAPHTHOFLAVONE, Method: PREINCUBATION): inactive; negative | mutagenic call [11]: inactive; negative | mutagenic call (Test System: AMES SALMONELLA TYPHIMURIUM, Strain/Indicator: TA1537, Metabolic Activation: RAT LIVER S-9, PHENOBARBITAL AND BETA-NAPHTHOFLAVONE, Method: PREINCUBATION): inactive; negative | mutagenic call (Test System: AMES SALMONELLA TYPHIMURIUM, Strain/Indicator: TA1538, Metabolic Activation: NONE, Method: PREINCUBATION): inactive; negative | mutagenic call (Test System: AMES SALMONELLA TYPHIMURIUM, Strain/Indicator: TA1538, Metabolic Activation: RAT LIVER S-9, PHENOBARBITAL AND BETA-NAPHTHOFLAVONE, Method: PREINCUBATION): inactive; negative | mutagenic call (Test System: E.COLI, Strain/Indicator: WP2UVRA, Metabolic Activation: NONE, Method: PREINCUBATION): inactive; negative | mutagenic call (Test System: E.COLI, Strain/Indicator: WP2UVRA, Metabolic Activation: RAT LIVER S-9, PHENOBARBITAL AND BETA-NAPHTHOFLAVONE, Method: PREINCUBATION): inactive; negative

O=C(O)c1ccccc1Nc1cc(Cl)ccc1C(=O)O
mutagenic call [10]: inactive; negative | mutagenic call [1]: inactive; negative | mutagenic call (Test System: AMES SALMONELLA TYPHIMURIUM, Strain/Indicator: TA98, Metabolic Activation: RAT, LIVER, S-9, AROCLOR 1254, Method: PREINCUBATION): inactive; negative | mutagenic call (Test System: AMES SALMONELLA TYPHIMURIUM, Strain/Indicator: TA98, Metabolic Activation: RAT, LIVER, S-9, AROCLOR 1254, Method: STANDARD PLATE): inactive; negative | mutagenic call [2]: inactive; negative | mutagenic call (Test System: AMES SALMONELLA TYPHIMURIUM, Strain/Indicator: TA100, Metabolic Activation: RAT, LIVER, S-9, AROCLOR 1254, Method: STANDARD PLATE): inactive; negative | mutagenic call [3]: inactive; negative | mutagenic call [6]: inactive; negative | mutagenic call [4]: inactive; negative | mutagenic call [7]: inactive; negative | mutagenic call [8]: inactive; negative | mutagenic call [9]: inactive; negative

COC(COC(N)=O)C1=C(N2CC2)C(=O)C(C)=C(N2CC2)C1=O (stereo unspecified)
mutagenic call [1]: active; positive | mutagenic call [2]: active; positive | mutagenic call [4]: active; positive | mutagenic call (Test System: CHINESE HAMSTER V-79, Strain/Indicator: V-79/6-THIOGUANINE, Metabolic Activation: NONE, Method: FLASK ASSAY): active; positive | mutagenic call (Test System: E. COLI, Strain/Indicator: WP2 (HCR), Metabolic Activation: NONE, Method: STANDARD PLATE): active; positive
